The source made the active and inactive calls. Cut-off read from the data, not from the text of the source, for most assays here: actives have a measured IC50 and inactives only a lower limit.
Key:
Format in all cases: functional
[1] = target: T1, Replicative DNA helicase DnaB (Mycobacterium tuberculosis, UniProt P9WMR3); experiment: DnaB intein splicing inhibitors, dose response, biochemical, cell-free fluorescence (AID 449749)
T1 sequence (P9WMR3 whole entry): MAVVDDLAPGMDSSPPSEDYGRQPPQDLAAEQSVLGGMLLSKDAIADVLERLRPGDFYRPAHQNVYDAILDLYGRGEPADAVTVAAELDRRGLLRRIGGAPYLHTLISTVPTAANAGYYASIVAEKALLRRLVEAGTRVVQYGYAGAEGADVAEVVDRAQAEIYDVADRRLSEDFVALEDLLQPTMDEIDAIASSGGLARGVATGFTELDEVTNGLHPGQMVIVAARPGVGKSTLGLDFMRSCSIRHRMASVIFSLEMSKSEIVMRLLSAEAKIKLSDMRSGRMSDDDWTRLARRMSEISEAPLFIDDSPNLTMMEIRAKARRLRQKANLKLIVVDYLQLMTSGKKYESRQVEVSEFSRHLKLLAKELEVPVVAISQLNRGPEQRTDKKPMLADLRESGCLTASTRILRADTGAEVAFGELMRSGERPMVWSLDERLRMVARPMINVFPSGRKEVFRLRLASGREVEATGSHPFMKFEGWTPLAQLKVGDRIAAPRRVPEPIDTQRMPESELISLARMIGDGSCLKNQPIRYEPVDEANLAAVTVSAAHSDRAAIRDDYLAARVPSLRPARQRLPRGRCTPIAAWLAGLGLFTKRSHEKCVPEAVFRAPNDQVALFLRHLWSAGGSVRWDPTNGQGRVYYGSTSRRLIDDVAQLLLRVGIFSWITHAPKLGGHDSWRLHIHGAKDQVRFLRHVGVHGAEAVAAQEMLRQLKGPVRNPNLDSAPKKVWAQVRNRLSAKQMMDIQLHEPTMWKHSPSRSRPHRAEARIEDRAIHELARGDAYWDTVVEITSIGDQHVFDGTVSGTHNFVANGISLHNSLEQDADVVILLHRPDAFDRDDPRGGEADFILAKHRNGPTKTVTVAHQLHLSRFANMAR

[2] = target: T2, Sentrin-specific protease 8 (Homo sapiens, UniProt Q96LD8);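 note: luminescence read-out of SENP8 inhibition, dose-response confirmation following an ultra-high-throughput screen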
T2 sequence (Q96LD8 whole entry): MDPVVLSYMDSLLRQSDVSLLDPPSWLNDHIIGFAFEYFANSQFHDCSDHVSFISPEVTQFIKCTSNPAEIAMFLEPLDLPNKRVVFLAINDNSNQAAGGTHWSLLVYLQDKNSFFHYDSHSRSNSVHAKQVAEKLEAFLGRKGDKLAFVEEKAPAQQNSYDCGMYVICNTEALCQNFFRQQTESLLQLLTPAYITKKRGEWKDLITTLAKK

[3] = target: T3, Sentrin-specific protease 7 (Homo sapiens, UniProt Q9BQF6);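 note: Luminescence-based dose-response confirmation of ultra-high-throughput screening hits, measuring inhibition of SENP7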
T3 sequence (Q9BQF6 whole entry): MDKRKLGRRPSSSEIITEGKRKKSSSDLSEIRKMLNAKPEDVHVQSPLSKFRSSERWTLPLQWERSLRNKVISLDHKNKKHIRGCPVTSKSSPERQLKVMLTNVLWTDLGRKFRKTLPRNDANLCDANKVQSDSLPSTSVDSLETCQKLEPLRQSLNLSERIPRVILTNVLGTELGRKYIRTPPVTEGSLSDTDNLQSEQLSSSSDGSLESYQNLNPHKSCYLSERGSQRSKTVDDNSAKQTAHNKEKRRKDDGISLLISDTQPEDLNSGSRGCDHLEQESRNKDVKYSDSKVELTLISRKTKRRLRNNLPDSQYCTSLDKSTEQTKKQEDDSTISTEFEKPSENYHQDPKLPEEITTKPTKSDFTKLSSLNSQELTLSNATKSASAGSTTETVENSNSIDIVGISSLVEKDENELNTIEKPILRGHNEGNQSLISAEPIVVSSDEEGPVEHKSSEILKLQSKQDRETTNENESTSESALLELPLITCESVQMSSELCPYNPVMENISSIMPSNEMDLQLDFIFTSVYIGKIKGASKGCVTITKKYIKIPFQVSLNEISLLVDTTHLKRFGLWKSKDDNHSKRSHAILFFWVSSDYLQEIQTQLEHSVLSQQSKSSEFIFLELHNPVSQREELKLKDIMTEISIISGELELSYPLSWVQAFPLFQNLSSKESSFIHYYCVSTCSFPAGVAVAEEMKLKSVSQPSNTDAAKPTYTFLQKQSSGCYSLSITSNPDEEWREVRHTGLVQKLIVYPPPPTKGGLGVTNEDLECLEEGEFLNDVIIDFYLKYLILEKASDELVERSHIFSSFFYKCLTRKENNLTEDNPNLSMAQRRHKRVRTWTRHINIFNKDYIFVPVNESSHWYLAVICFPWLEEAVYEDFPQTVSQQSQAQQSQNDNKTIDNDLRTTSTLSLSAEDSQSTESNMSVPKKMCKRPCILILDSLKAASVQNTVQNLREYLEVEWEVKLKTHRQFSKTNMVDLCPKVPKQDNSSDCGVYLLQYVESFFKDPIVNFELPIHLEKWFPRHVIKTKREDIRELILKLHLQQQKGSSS

Caspase-3 = target: T4, Caspase-3 (Homo sapiens, UniProt P42574);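 note: Dose-response selectivity test against caspase-3 for candidate inhibitors of sentrin-specific proteases (SENPs)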
T4 sequence (P42574 whole entry): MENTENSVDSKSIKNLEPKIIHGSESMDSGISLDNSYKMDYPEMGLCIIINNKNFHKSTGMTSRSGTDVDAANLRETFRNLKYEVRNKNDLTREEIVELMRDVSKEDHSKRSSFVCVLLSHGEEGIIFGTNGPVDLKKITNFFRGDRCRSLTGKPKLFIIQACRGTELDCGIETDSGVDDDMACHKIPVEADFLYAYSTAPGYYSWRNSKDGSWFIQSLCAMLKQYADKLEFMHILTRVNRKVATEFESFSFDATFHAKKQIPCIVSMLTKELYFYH

| Compound | AC50 [1] | IC50 [2] | IC50 [3] | IC50 (Caspase-3) |
| --- | --- | --- | --- | --- |
| Cc1nn(-c2ccccc2)c(Cl)c1CN(C(=O)CCl)c1ccc(Cl)cc1 | 1.52 µM (active) | – | – | – |
| Oc1ccccc1/C=C/c1noc(-c2ccccc2O)n1 | – | > 100 µM (inactive) | 3.46 µM (active) | 39.7 µM (active) |
| Cc1cccc(N=Nc2ccc(N(C)C)cc2)c1 | – | 3.74 µM (active) | 2.52 µM (active) | 5.57 µM (active) |
| O=C(O)CSc1cc(NS(=O)(=O)c2ccc(Cl)cc2)c2ccccc2c1O | 2.91 µM (active) | – | – | – |
| COc1ccccc1N1C(=O)Cc2ccccc2C1=O | > 380 µM (inactive) | 49.4 µM (active) | 31.2 µM (active) | 4.61 µM (active) |

Source: ChEMBL document CHEMBL1201862, “PubChem BioAssay data set” (2004)
